Measurements: publication PMC9974463 (Proceedings of the National Academy of Sciences of the …, 2023)

Assays:
[1] = biological target: T1, AbCphZ (Acinetobacter baylyi, UniProt Q6FCQ4, E251A); assay: isothermal titration calorimetry; type: binding
T1 sequence (Q6FCQ4 1-383 E251A): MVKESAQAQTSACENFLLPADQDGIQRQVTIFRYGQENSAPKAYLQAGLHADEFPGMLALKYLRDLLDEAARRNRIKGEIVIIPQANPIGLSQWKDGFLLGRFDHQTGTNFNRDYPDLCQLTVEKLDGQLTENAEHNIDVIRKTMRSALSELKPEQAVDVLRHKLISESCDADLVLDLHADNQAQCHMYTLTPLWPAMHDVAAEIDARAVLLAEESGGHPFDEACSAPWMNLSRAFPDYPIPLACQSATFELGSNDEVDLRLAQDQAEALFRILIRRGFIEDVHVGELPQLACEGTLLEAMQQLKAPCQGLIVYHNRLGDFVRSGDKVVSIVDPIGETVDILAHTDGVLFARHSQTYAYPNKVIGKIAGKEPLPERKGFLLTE

[2] = biological target: T2, PaAotO (Pseudomonas aeruginosa, UniProt O50184); assay: Arg release coupled assay; type: biochemical; settings: 1 mM substrate, 500 nM enzyme
T2 sequence (O50184 1-370): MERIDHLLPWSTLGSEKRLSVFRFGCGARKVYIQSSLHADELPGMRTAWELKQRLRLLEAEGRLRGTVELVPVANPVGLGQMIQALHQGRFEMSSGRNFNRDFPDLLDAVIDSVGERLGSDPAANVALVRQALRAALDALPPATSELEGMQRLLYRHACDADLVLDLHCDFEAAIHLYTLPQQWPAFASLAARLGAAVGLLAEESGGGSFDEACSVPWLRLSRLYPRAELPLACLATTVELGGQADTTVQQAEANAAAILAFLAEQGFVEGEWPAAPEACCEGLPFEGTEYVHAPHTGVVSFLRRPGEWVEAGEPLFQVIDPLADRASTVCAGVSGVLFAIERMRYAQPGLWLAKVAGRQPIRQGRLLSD

[3] = biological target: Acinetobacter baylyi cyanophycin dipeptide hydrolase CphZ (Acinetobacter baylyi DSM587); assay: SEC
[4] = biological target: AbCphZ E251A (Acinetobacter baylyi DSM587); assay: ITC

Compound: N=C(N)NCCC[C@H](NC(=O)C[C@H](N)C(=O)O)C(=O)O [β-Asp-Arg]
- Kd [1]: 7.6 ± 0.1 µM
- Arg release coupled assay (340 nm) [2]: AotO is specific for β-Asp-Arg and hydrolyzes it at a rate comparable to AbCphZ

Compound: N=C(N)NCCC[C@H](N)C(=O)O [Arg]
- Kd [1]: 471 ± 16.8 µM

Compound: Acinetobacter baylyi cyanophycin dipeptide hydrolase CphZ (enzyme)
- stoichiometry N [3]: 2

Compound: β-Asp-Arg dipeptide
- Kd [4]: 7.6 µM
